These molecules were tested against human DP2 (Homo sapiens (Human), UniProt Q9Y5Y4) (assay: DP-2 Binding Inhibition Assay (3H-PGD2 binding to membranes of K562 cells expressing DP2)). Conditions: read-out: EC50 (Nm) 1% HSA; inhibition of 3H-PGD2 binding, 1% HSA.
Summary of the method: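 Membranes from K562 stably expressing DP2, incubated 60 min at room temperature with ³H-PGD2 and compound in Tris pH 7.4 buffer with 0.1% BSA, 1% HSA or 4% HSA; filtration read-out. Nonspecific binding: 1 μM unlabeled PGD2 or 5 μM known antagonist. EC50 from 4-parameter logistic fit.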

human DP2, sequence (Q9Y5Y4 whole entry): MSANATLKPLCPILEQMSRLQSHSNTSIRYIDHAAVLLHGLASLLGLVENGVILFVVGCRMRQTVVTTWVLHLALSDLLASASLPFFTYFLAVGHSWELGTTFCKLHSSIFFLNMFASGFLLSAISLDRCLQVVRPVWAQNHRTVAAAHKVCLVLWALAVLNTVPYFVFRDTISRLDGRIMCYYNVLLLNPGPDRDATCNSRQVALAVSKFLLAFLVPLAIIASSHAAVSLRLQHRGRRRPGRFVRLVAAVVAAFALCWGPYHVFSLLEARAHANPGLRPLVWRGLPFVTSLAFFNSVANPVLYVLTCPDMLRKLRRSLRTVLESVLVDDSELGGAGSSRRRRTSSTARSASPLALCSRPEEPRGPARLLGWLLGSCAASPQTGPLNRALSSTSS

EC50 [nM] | SMILES
108 | O=C(NCCc1ccc(Cl)cc1)c1ccc(Oc2ccc3c(c2)OCCC3C(=O)O)cc1 (centres unmarked) [Example 128, 7-(4-(4-chlorophenyethylcarbamoyl)phenoxy)chroman-4-carboxylic acid]
21.9 | Cc1cc(C(=O)NCCc2ccc(Cl)cc2)ccc1Oc1cc2c(cc1C#N)C(C(=O)O)CCO2 (centres unmarked) [Example 129, 7-(4-(4-Chlorophenethylcarbamoyl)-2-methylphenoxy)-6-cyanochroman-4-carboxylic acid]
25.7 | C[C@@H](CNC(=O)c1ccc(Oc2cc3c(cc2C#N)C(C(=O)O)CCO3)cc1)c1ccccc1 (stereo partly drawn) [Example 130, 6-Cyano-7-(4-((R)-2-phenylpropylcarbamoyl)phenoxy)chroman-4-carboxylic acid]
59.3 | C[C@H](CNC(=O)c1ccc(Oc2cc3c(cc2C#N)C(C(=O)O)CCO3)cc1)c1ccccc1 (stereo partly drawn) [Example 131, 6-Cyano-7-(4-((S)-2-phenylpropylcarbamoyl)phenoxy)chroman-4-carboxylic acid]
37.4 | CC(Cc1ccc(Cl)cc1)NC(=O)c1ccc(Oc2cc3c(cc2C#N)C(C(=O)O)CCO3)cc1 (centres unmarked) [Example 132, 7-(4-(1-(4-Chlorophenyl)propan-2-ylcarbamoyl)phenoxy)-6-cyanochroman-4-carboxylic acid]

Same assay, conditions: read-out: EC50 (nM) 4% HSA; inhibition of 3H-PGD2 binding, 4% HSA

SMILES | EC50 [nM]
O=C(NCCc1ccc(Cl)cc1)c1ccc(Oc2ccc3c(c2)OCCC3C(=O)O)cc1 (centres unmarked) [Example 128, 7-(4-(4-chlorophenyethylcarbamoyl)phenoxy)chroman-4-carboxylic acid] | 980
COc1cc(CCNC(=O)c2ccc(Oc3cc4c(cc3C#N)C(C(=O)O)CCO4)cc2)ccc1Cl (centres unmarked) [Example 133, 7-(4-(4-Chloro-3-methoxyphenethylcarbamoyl)phenoxy)-6-cyanochroman-4-carboxylic acid] | 625
COc1ccc(CCNC(=O)c2ccc(Oc3cc4c(cc3Cl)C(C(=O)O)CCO4)cc2)cc1OC (centres unmarked) [Example 141, Sodium 6-chloro-7-(4-(3,4-dimethoxyphenethylcarbamoyl)phenoxy)chroman-4-carboxylate] | 1000
COc1cccc(CCNC(=O)c2ccc(Oc3cc4c(cc3Cl)C(C(=O)O)CCO4)cc2)c1 (centres unmarked) [Example 143, Sodium 6-chloro-7-(4-(3-methoxyphenethylcarbamoyl)phenoxy)chroman-4-carboxylate] | 1010
O=C(NCCc1cccc(F)c1)c1ccc(Oc2cc3c(cc2Cl)C(C(=O)O)CCO3)cc1 (centres unmarked) [Example 145, Sodium 6-chloro-7-(4-(3-fluorophenethylcarbamoyl)phenoxy)chroman-4-carboxylate] | 655
Cc1cccc(CCNC(=O)c2ccc(Oc3cc4c(cc3Cl)C(C(=O)O)CCO4)cc2)c1 (centres unmarked) [Example 146, Sodium 6-chloro-7-(4-(3-methylphenethylcarbamoyl)phenoxy)chroman-4-carboxylate] | 608
O=C(NCCc1cc(Cl)cc(Cl)c1)c1ccc(Oc2cc3c(cc2Cl)C(C(=O)O)CCO3)cc1 (centres unmarked) [Example 148, Sodium 6-chloro-7-(4-(3,5-dichlorophenethylcarbamoyl)phenoxy)chroman-4-carboxylate] | 196
CC1(C)CCC(NC(=O)c2ccc(Oc3cc4c(cc3Cl)C(C(=O)O)CCO4)cc2)CC1 (centres unmarked) [Example 157, 6-Chloro-7-(4-(4,4-dimethylcyclohexylcarbamoyl)phenoxy)chroman-4-carboxylic acid] | 1580
O=C(NC1CCCC(c2ccccc2)C1)c1ccc(Oc2cc3c(cc2Cl)C(C(=O)O)CCO3)cc1 (centres unmarked) [Example 158, 6-Chloro-7-(4-(3-phenylcyclohexylcarbamoyl)phenoxy)chroman-4-carboxylic acid] | 1650
COc1ccc(C2CCCC(NC(=O)c3ccc(Oc4cc5c(cc4Cl)C(C(=O)O)CCO5)cc3)C2)cc1 (centres unmarked) [Example 161, 6-Chloro-7-(4-(3-(4-methoxyphenyl)cyclohexylcarbamoyl)phenoxy)chroman-4-carboxylic acid] | 1120

Next, values leading:

EC50 [nM] | SMILES
521 | O=C(NCCc1ccccc1F)c1ccc(Oc2cc3c(cc2Cl)C(C(=O)O)CCO3)cc1 (centres unmarked) [Example 153, Sodium 6-chloro-7-(4-(2-fluorophenethylcarbamoyl)phenoxy)chroman-4-carboxylate]
509 | CC(C)(C)C1CCC(NC(=O)c2ccc(Oc3cc4c(cc3Cl)C(C(=O)O)CCO4)cc2)CC1 (centres unmarked) [Example 156, 7-(4-(4-tert-butylcyclohexylcarbamoyl)phenoxy)-6-chlorochroman-4-carboxylic acid]
498 | COc1ccc(CCNC(=O)c2ccc(Oc3cc4c(cc3Cl)C(C(=O)O)CCO4)cc2)cc1 (centres unmarked) [Example 140, Sodium 6-chloro-7-(4-(4-methoxyphenethylcarbamoyl)phenoxy)chroman-4-carboxylate]
430 | CSc1ccc(C2CCCC(NC(=O)c3ccc(Oc4cc5c(cc4Cl)C(C(=O)O)CCO5)cc3)C2)cc1 (centres unmarked) [Example 162, 6-Chloro-7-(4-(3-(4-(methylthio)phenyl)cyclohexylcarbamoyl)phenoxy)chroman-4-carboxylic acid]
350 | Cc1ccc(C2CCCC(NC(=O)c3ccc(Oc4cc5c(cc4Cl)C(C(=O)O)CCO5)cc3)C2)cc1 (centres unmarked) [Example 160, 6-Chloro-7-(4-(3-(4-methylphenyl)cyclohexylcarbamoyl)phenoxy)chroman-4-carboxylic acid]
341 | O=C(NCCc1cccc(Cl)c1)c1ccc(Oc2cc3c(cc2Cl)C(C(=O)O)CCO3)cc1 (centres unmarked) [Example 150, Sodium 6-chloro-7-(4-(3-chlorophenethylcarbamoyl)phenoxy)chroman-4-carboxylate]
280 | O=C(NCCc1cccc(Oc2ccccc2)c1)c1ccc(Oc2cc3c(cc2Cl)C(C(=O)O)CCO3)cc1 (centres unmarked) [Example 149, Sodium 6-chloro-7-(4-(3-phenoxyphenethylcarbamoyl)phenoxy)chroman-4-carboxylate]
240 | O=C(NCCc1ccc(SC(F)(F)F)cc1)c1ccc(Oc2cc3c(cc2Cl)C(C(=O)O)CCO3)cc1 (centres unmarked) [Example 147, Sodium 6-chloro-7-(4-(4-(trifluoromethylthio)phenethylcarbamoyl)phenoxy)chroman-4-carboxylate]
239 | O=C(NCCc1ccc(Cl)c(Cl)c1)c1ccc(Oc2cc3c(cc2Cl)C(C(=O)O)CCO3)cc1 (centres unmarked) [Example 138, Sodium 6-chloro-7-(4-(3,4-dichlorophenethylcarbamoyl)phenoxy)chroman-4-carboxylate]
226 | O=C(NCCc1cccc(Cl)c1Cl)c1ccc(Oc2cc3c(cc2Cl)C(C(=O)O)CCO3)cc1 (centres unmarked) [Example 139, Sodium 6-chloro-7-(4-(2,3-dichlorophenethylcarbamoyl)phenoxy)chroman-4-carboxylate]
205 | CC(C)Oc1cccc(NC(=O)c2ccc(Oc3cc4c(cc3C#N)C(C(=O)O)CCO4)cc2)c1 (centres unmarked) [Example 135, 6-Cyano-7-(4-(3-isopropoxyphenylcarbamoyl)phenoxy)chroman-4-carboxylic acid]
160 | O=C(NCCc1ccccc1C(F)(F)F)c1ccc(Oc2cc3c(cc2Cl)C(C(=O)O)CCO3)cc1 (centres unmarked) [Example 152, Sodium 6-chloro-7-(4-(2-(trifluoromethyl)phenethylcarbamoyl)phenoxy)chroman-4-carboxylate]
140 | CC(C)(C)c1ccc(CCNC(=O)c2ccc(Oc3cc4c(cc3Cl)C(C(=O)O)CCO4)cc2)cc1 (centres unmarked) [Example 142, Sodium 7-(4-(4-tert-butylphenethylcarbamoyl)phenoxy)-6-chlorochroman-4-carboxylate]
112 | CC(C)(C)c1cccc(NC(=O)c2ccc(Oc3cc4c(cc3C#N)C(C(=O)O)CCO4)cc2)c1 (centres unmarked) [Example 134, 7-(4-(3-tert-Butylphenylcarbamoyl)phenoxy)-6-cyanochroman-4-carboxylic acid]
